Assay results taken from patent US20050239715A1, “Inhibition of allergic contact dermatitis by N-L-alpha-aspartyl-L-phenylalanine 1-methyl ester” (priority 2004, published 2005).
Residues, ends and D or L forms follow the SMILES beside them.

Experiments:
[1] = system: human rash secondary to urushiol exposure; assay: Example 4: treatment of rash caused by urushiol; assay type: in vivo
Procedure: A human rash, with itching, in progress secondary to contact with an animal known to have had significant exposure to urushiol substances was arrested in 8 hours with 2 applications of aspartame in a Vaseline Intensive Care Lotion base (about 1.2 to 10 mg/ml). The itching ceased, and discomfort and irritation resolved within 8 hours.

[2] = system: allergic contact dermatitis, skin previously exposed to urushiol; assay: Example 1: treatment of allergic contact dermatitis with APM in a cream base; assay type: in vivo; conditions: thin film of APM in cream base, after sixty (60) minutes
Description: To an area of skin previously exposed to urushiol is applied a thin film of APM in a cream base. […] Further treatment may include washing the affected area to remove and displace urushiol dissolved in the applied lotion and followed by reapplication of APM containing cream or lotion.

[3] = cited from earlier work
[4] = system: Urushiol-Induced Dermatitis on Human Skin; assay: Example 2: prevention of urushiol-induced dermatitis on human skin; assay type: in vivo; conditions: thin film of APM suspended in petroleum cream base applied before exposure
Description: To an area of skin which may be exposed to urushiol is applied a thin film of APM suspended in a petroleum cream base.

[5] = system: capsaicin burning of the eye; assay: Example 7: capsaicin burning of the eye; assay type: in vivo, human; conditions: about 10 mg per 250 microliters in sterile saline applied to eye
Procedure: A kitchen worker is exposed to capsaicin oil from peppers during cooking preparation, the oil is transferred to their hands and then, by their hands, to their eyes, resulting in a burning sensation and pain. […] The application may be repeated in 15 min because tearing may dilute or wash away the active ingredients.

[6] = system: capsaicin taste receptor (heat and irritation of the tongue); assay: Oral application of APM with capsaicin-containing red pepper sauce; assay type: in vivo
Description: The variability in observable results in preventing dermatitis or topical irritation appear related to the amount of APM that is applied, the time and order of the therapeutic application, and the presence of receptors to which either the irritant oil or APM may bind.

[7] = system: Urushiol-Induced Dermatitis on Human Skin; assay: Example 3: treatment and prevention of urushiol-induced dermatitis on human skin (Patient 1); assay type: in vivo; conditions: topical lotion 0.5 to 1 mg APM/ml, two to three times per day, also two packets Equal by mouth
Procedure: The goats frequently consumed and were in contact with both poison sumac and poison ivy abundant in their enclosure without experiencing symptoms.
A topical APM preparation was made by mixing 2 to 3 packets of Equal® brand sweetner (80-120 mg of APM) with approximately 170 ml (5.5 fluid ounces) of lotion containing Vaseline® Intensive Care® Water Resistant Moisturizing Lotion (Unilever United States, Inc.), resulting in a lotion with 0.5 to 1 mg APM/ml. Patient 1 had previously used the lotion base without effect. Patient 1 also took two packets of Equal® brand sweetener by mouth in response to a symptom of diarrhea, a condition known to be associated with urishiol.
A soap and water scrub of the affected area was done one hour after application of the cream, and the affected area allowed to air dry.
Additional affected areas were then discovered on Patient 1, and a lotion was prepared for Patient 1 to use on these areas as well as unaffected areas that could come in contact with poison ivy during their work. Patient 1 used additional topical APM preparation approximately two to three times per day.

[8] = system: capsaicin burning and pain of mucosa; assay: Example 8: APM after inadvertent mucosal contact with capsaicin cream; assay type: in vivo, human; conditions: preparation of 38 mg APM per 5 ml applied to affected area
Procedure: A patient is treated for arthritis with a capsaicin cream applied twice daily to the affected joint. Capsaicin is absorbed by the transdermal tissue and then transported to joint area. After an appropriate interval, for instance 2-5 days, significant reduction in swelling, heat, redness, and pain is observed. However, the patient also inadvertently contacts his or her urethra, periurethra tissues, vaginal mucosa, rectal mucosa, eyes, or nose with the capsaicin cream, resulting in a sensation of burning and pain in the affected area.

## COC(=O)[C@H](Cc1ccccc1)NC(=O)[C@@H](N)CC(=O)O [APM, N-L-alpha-aspartyl-L-phenylalanine 1-methyl ester] (H-Asp-Phe-OMe)
[1]; 2 applications in Vaseline Intensive Care Lotion base, about 1.2 to 10 mg/ml
  time in which rash with itching was arrested: 8 h
[1]; 2 applications in lotion base, about 1.2 to 10 mg/ml
  time in which itching ceased and discomfort and irritation resolved: ≤ 8 h
[1]; overnight after 2 applications in lotion base
  state of rash overnight: the rash was gone
[2]
  symptoms of allergic contact dermatitis: significantly reduced
[3]
  pH at which cyclisation with formation of diketopiperazine occurs in APM solutions: greater than 5
[4]
  symptoms of allergic contact dermatitis: either do not appear or are significantly reduced
[5]
  burning sensation of the eye: alleviated
[6]; APM applied orally before red pepper sauce
  perception of spiciness of red pepper sauce: absence of recognition of the spicyness
[6]; long exposure with secondary effects
  APM response after long duration of exposure to capsaicin: not as strong nor as quick
[6]; red pepper sauce applied to tongue first, APM after
  response when APM is applied after sensations of heat and irritation developed: manifested and recognized quickly
[7]
  rash or reaction observed on the day after application: no rash or reaction had occurred
[8]
  burning and pain of affected area: reducing or eliminating the burning and pain
